The values that follow come from US9302967B2, “Substituted cathechols as inhibitors of IL-4 and IL-5 for the treatment of bronchial asthma” (Council of Scientific & Industrial Research, priority 2011, dated 2016).

A word on the IC50: it is the concentration needed to halve the response being measured. As a reminder, the melting point is the temperature of the solid-liquid transition.

Structures are written as SMILES.

For series [1], the system named is IL-5. Description: PHA-stimulated human PBMC, IL-5 in supernatant by Cytometric Bead Array. Type of series: cell-based. The settings on record: Homo sapiens, PHA 10 μg/ml, read-out: IC50 inhibitory activity, stimulation-induced IL-5. As to the method:
(§1) Normal human peripheral blood mononuclear cells (PBMC) were stimulated with phytohemagglutinin (PHA) 10 μg/ml in the presence and absence of varying concentrations of compounds of formula I and II. Culture supernatants were harvested and IIL-4 and IL-5 cytokines were quantitated by Cytometric Bead Array (CBA™) kit (Becton Dickinson, USA) following manufacturers instructions using a Flow Cytometer (BD LSR, Becton Dickinson) and CBA™ analysis software (Becton Dickinson).

Series [2] has as its system IL-4. Description: PHA-stimulated human PBMC, IL-4 in supernatant by Cytometric Bead Array. It is filed as cell-based. The settings on record: PHA 10 μg/ml, read-out: IC50 inhibitory activity, stimulation-induced IL-4. How it is done:
as §1

Regarding `C=CCc1cccc(O)c1O` [Compound 16, 3-allyl-benzene-1,2-diol], the IC50 in series [1] and in series [2] was 30 µM in each case.
`C=CCc1cccc(OC(C)=O)c1OC(C)=O` [Compound 19, 3-allyl-1,2-phenylene diacetate] yielded a melting point of 58 to 60 °C. For the same molecule, the IC50 in series [1] was 35 µM. Moreover, the concentration for half-maximal inhibition (IC50) in series [2] is 30 µM.
As to `C=CCc1ccc(OC(C)=O)c(OC(C)=O)c1` [Compound 7, 4-allyl-1,2-phenylene diacetate], the IC50 in series [1] and in series [2] was 4 µM throughout.
